# Patent publication US4966962A, “Reverse analogue of actinomycin D” (Trustees of Boston University, priority 1988, dated 1990)
# Read-outs that look alike come from different tables or passages of the source. *1 amine or outer side, *2 acyl side, *3 side chain or, on linkers, in order; H or OH if unused. Where a SMILES comes first, the peptide text is derived from it. Bridges are numbered along the chain shown (N, C = ends). Roman numbers before positions name the chains, in order. [ ]: non-standard residue; d: D form. Actinocin(9to1) = Cc1c2oc3c(C)ccc(C(=O)[*:1])c3nc-2c(C(=O)[*:2])c(N)c1=O; NMeV = CN[C@H](C(=O)O)C(C)C; Sar = CNCC(=O)O
# Key:
# Solubility in water = format: physicochemical; conditions: for solubility in water: at 20° C.
# Protocol: Synthesis of "Reverse" III AMD Analogue (RAD III, 3c). The synthesis of RAD III (3c) is shown schematically in Scheme I. Compound 4 was reacted with the benzyl ester of oxalacetic acid at 80° C. according to the procedure reported. The resulting product 5 with the CH2 COOCH2 C6 H5 substituent at the C-2 of the oxazole ring was debenzylated to 6, and compound 6 was coupled with excess 1,4-diaminobutane by DCC in pyridine. […] Like AMD and its other "reverse" analogues, RAD III (3c) is 16-fold more soluble in water at 4° C. than at 20° C.
# colon 38 adenocarcinoma = test: Activity against advanced colon carcinoma C38 tumor; format: in vivo, CDF1 mice; conditions: for % inhibn of tumor: tumors measured day 21; for activity relative to AMD at equivalent doses: every 4 days, three times, from day 1 after implant
# Protocol: In view of favorable activity agianst colon 26 carcinoma, further experiments using the active analogues were carried out on the advanced colon adenocarcinomas of mouse colon 38. […] The superiority of RAD III and SAD over AMD in inhibiting colon 38 carcinoma is evident from the data of both tumor weight inhibition and increases in survival time of the treated over nontreated mice and the larger number of long-term survivors produced by these analogues.
# ^a CDF1 mice were injected sc with colon 38 adenocarcinoma
# fragments (70 mg) and treated with drugs with iv injections on day 1, 5,
# and 9 following tumor imoplantation on day 0. ^b [100 (tumor weight o
# treated mice/tumor weight of untreated mice)] × 100; data pooled
# from two experiments, tumors measured on day 21 after implantation ^c
# (Median survival time of treated mice/median survival of untreated mice)
# × 100; in parenthesis, number of over 100 day survivors/number of […]
# calf thymus DNA [1] = conditions: value given with references 2,7; cited from earlier work
# [2] = Metabolism in tumor cell homogenate (T); format: in vitro ADME, murine; conditions: P388 homogenate (T), 37° C., 16 h
# Protocol: In this respect, actinomycin is only about 30% as efficient as its synthetic analogues, RAD III (3c) and SAD (2) (Table II). Metabolic Studies, Metabolism in the Presence of Tumor Cell Homogenates and Rat Liver Microsomes. The cell homogenates (P388 cells were sonicated and were incubated at 37° C. with analogues for 16 h. Rat microsomes were harvested from phenobarbital-induced rats by standard procedure. Incubations were carried out for 6 h in the presence of a NADPH-generating system, i.e., glucose-6-phosphate dehydrogenase and glucose 6-phosphate. The metabolites and their water-soluble conjugates were isolated and identified with the use of tritiated analogues.
# It was observed that the RAD analogues are metabolized to SAD (2) with the loss of oxazole ring. […] In tumor cells, a larger fraction of SAD (2) (30-50%) remains unmetabolized. SAD is found to form glucuronide and sulfate conjugates only in tumor cells. […] Isolation of SAD from RAD analogues is a very important step, because SAD is found to be a potent and effective antitumor agent in several murine tumor systems (Tables V-XII).
# calf thymus DNA [3] = test: Equilibrium binding constants from Scatchard plots of binding isotherms; conditions: 0.01M phosphate buffer, pH 7.0 at 20° C.
# Protocol: The equilibrium binding constants of RAD III (3c), determined from the Scatchard plots of binding isotherms with use of calf thymus DNA, are Kapp, 2.9×10^6 M^-1, and Bapp, 0.040 in 0.01M phosphate buffer, pH 7.0 at 20° C.
# colon tumor 26 = test: In vivo activity against colon tumor 26; parameters: species or system CDF1 mice; conditions: three doses over 9-day period
# mouse melanoma (B16) = test: In vitro inhibition of tumor cell growth; format: cell-based; conditions: B16 cell line
# Source text: The comparative cell growth inhibitory activity of RAD's and SAD are reported (data in Table IV, supplementary material). The cell lines used are human lymphoblastic leukemia (CCRF-CEM), murine lymphocytic leukemia (P388) and lymphoid leukemia (L1210), and mouse melanoma (B16). […] In general, the cytotoxic potencies of the analogues are in the order: […]
# [4] = tested on: CX-1 human colon adenocarcinoma; test: Chemotherapy of human colon CX-1 tumor heterotransplanted in nude mice; format: in vivo, human tumor in athymic mice
# low molecular weight DNA = test: Viscometry experiment (intercalation into DNA); format: binding; conditions: DNA 0.5×10^5 to 1.0×10^5 daltons
# [5] = dose 0.075 mg/kg iv days 1, 5, 9
# [6] = dose 0.15 mg/kg iv days 1, 5, 9
# [7] = dose 0.30 mg/kg iv days 1, 5, 9
# [8] = dose 0.45 mg/kg iv days 1, 5, 9
# [9] = dose 0.60 mg/kg iv days 1, 5, 9
# [10] = dose 1.20 mg/kg iv days 1, 5, 9
smiles,measurement,setting,value
"Cc1c2oc3c(C)ccc(C(=O)N[C@@H]4C(=O)N[C@H](C(C)C)C(=O)N5CCC[C@H]5C(=O)N(C)CC(=O)N(C)[C@@H](C(C)C)C(=O)O[C@@H]4C)c3nc-2c(C(=O)N[C@@H]2C(=O)N[C@H](C(C)C)C(=O)N3CCC[C@H]3C(=O)N(C)CC(=O)N(C)[C@@H](C(C)C)C(=O)O[C@@H]2C)c(N)c1=O [AMD (1), Actinomycin D] (I: T[dV]P[Sar][NMeV] / II: T[dV]P[Sar][NMeV]; ester I:1-I:C, II:1-II:C; linker I:N-II:N via Actinocin(9to1))",solubility in water,Solubility in water,1000 µg/mL
same,% T/C (median survival time),colon 38 adenocarcinoma; [5],100%
same,% inhibn of tumor,colon 38 adenocarcinoma; [5],30%
same,% T/C (median survival time),colon 38 adenocarcinoma; [6],107%
same,% inhibn of tumor,colon 38 adenocarcinoma; [6],30%
same,% T/C (median survival time),colon 38 adenocarcinoma; [7],134%
same,% inhibn of tumor,colon 38 adenocarcinoma; [7],67%
same,% T/C (median survival time),colon 38 adenocarcinoma; [8],170%
same,% inhibn of tumor,colon 38 adenocarcinoma; [8],83%
same,% T/C (median survival time),colon 38 adenocarcinoma; [9],103%
same,% inhibn of tumor,colon 38 adenocarcinoma; [9],89%
same,Bapp,calf thymus DNA [1],0.108
same,Kapp (equilibrium binding constant),calf thymus DNA [1],2.3e+07 M⁻¹
same,percent unconverted drug,[2],100%
Cc1c2oc3c(C)c4oc(-c5ccccc5)nc4c(C(=O)N[C@@H]4C(=O)N[C@H](C(C)C)C(=O)N5CCC[C@H]5C(=O)N(C)CC(=O)N(C)[C@@H](C(C)C)C(=O)O[C@@H]4C)c3nc-2c(C(=O)N[C@@H]2C(=O)N[C@H](C(C)C)C(=O)N3CCC[C@H]3C(=O)N(C)CC(=O)N(C)[C@@H](C(C)C)C(=O)O[C@@H]2C)c(N)c1=O [RAD II (3b)],% T/C (median survival time),colon 38 adenocarcinoma; [6],103%
same,over 100 day survivors/number of mice,colon 38 adenocarcinoma; [6],1/9
same,% inhibn of tumor,colon 38 adenocarcinoma; [6],29%
same,% T/C (median survival time),colon 38 adenocarcinoma; [7],137%
same,% inhibn of tumor,colon 38 adenocarcinoma; [7],70%
same,% T/C (median survival time),colon 38 adenocarcinoma; [9],170%
same,over 100 day survivors/number of mice,colon 38 adenocarcinoma; [9],3/9
same,% inhibn of tumor,colon 38 adenocarcinoma; [9],83%
same,% T/C (median survival time),colon 38 adenocarcinoma; [10],103%
same,over 100 day survivors/number of mice,colon 38 adenocarcinoma; [10],2/9
same,% inhibn of tumor,colon 38 adenocarcinoma; [10],88%
Cc1c2oc3c(C)c4oc(CC(=O)NCCCCN)nc4c(C(=O)N[C@@H]4C(=O)N[C@H](C(C)C)C(=O)N5CCC[C@H]5C(=O)N(C)CC(=O)N(C)[C@@H](C(C)C)C(=O)O[C@@H]4C)c3nc-2c(C(=O)N[C@@H]2C(=O)N[C@H](C(C)C)C(=O)N3CCC[C@H]3C(=O)N(C)CC(=O)N(C)[C@@H](C(C)C)C(=O)O[C@@H]2C)c(N)c1=O [RAD III (3c)],Bapp,calf thymus DNA [3],0.040
same,Kapp (equilibrium binding constant),calf thymus DNA [3],2.9e+06 M⁻¹
same,fold more soluble in water at 4° C. than at 20° C.,Solubility in water; 4° C. vs 20° C.,16 fold
same,solubility in water,Solubility in water,2100 µg/mL
same,activity against colon tumor 26,colon tumor 26,significant activity
same,% T/C (median survival time),colon 38 adenocarcinoma; [7],170%
same,over 100 day survivors/number of mice,colon 38 adenocarcinoma; [7],1/9
same,% inhibn of tumor,colon 38 adenocarcinoma; [7],80%
same,% T/C (median survival time),colon 38 adenocarcinoma; [9],250%
same,over 100 day survivors/number of mice,colon 38 adenocarcinoma; [9],6/9
same,% inhibn of tumor,colon 38 adenocarcinoma; [9],93%
same,% T/C (median survival time),colon 38 adenocarcinoma; [10],231%
same,over 100 day survivors/number of mice,colon 38 adenocarcinoma; [10],3/9
same,% inhibn of tumor,colon 38 adenocarcinoma; [10],94%
same,activity relative to AMD at equivalent doses,colon 38 adenocarcinoma,about 150%
same,cell growth inhibitory potency relative to AMD,mouse melanoma (B16),two to fourfold
same,"% T/C, optimal","[4]; dose 75 μg/kg iv once a week for three weeks, TST 18, observed day 27",13%
same,change in the intrinsic viscosity with increasing [ligand]/[DNA base pair],low molecular weight DNA,failed to demonstrate any measurable change in the intrinsic viscosity
same,percent isolated: tissue bound,[2],5.0 ± 1.0%
same,percent isolated: unidentified metabolite,[2],5.0 ± 2.0%
same,percent metabolite isolated: SAD,[2],20.0 ± 2.0%
same,percent metabolite isolated: SAD-glucuronide and/or sulfate,[2],40.0 ± 5.5%
same,percent metabolite isolated: protein conjugates,[2],8.0 ± 2.0%
same,percent unconverted drug,[2],20.0 ± 2.5%
Cc1c2oc3c(C)c(O)c(N)c(C(=O)N[C@@H]4C(=O)N[C@H](C(C)C)C(=O)N5CCC[C@H]5C(=O)N(C)CC(=O)N(C)[C@@H](C(C)C)C(=O)O[C@@H]4C)c3nc-2c(C(=O)N[C@@H]2C(=O)N[C@H](C(C)C)C(=O)N3CCC[C@H]3C(=O)N(C)CC(=O)N(C)[C@@H](C(C)C)C(=O)O[C@@H]2C)c(N)c1=O [SAD (2)],activity against colon tumor 26,colon tumor 26,significant activity
same,increase in %ILS over controls,colon tumor 26,50-150%
same,increase of survival rate at 60 days,colon tumor 26,10-40%
same,% T/C (median survival time),colon 38 adenocarcinoma; [7],278%
same,over 100 day survivors/number of mice,colon 38 adenocarcinoma; [7],5/9
same,% inhibn of tumor,colon 38 adenocarcinoma; [7],95%
same,% T/C (median survival time),colon 38 adenocarcinoma; [9],278%
same,over 100 day survivors/number of mice,colon 38 adenocarcinoma; [9],6/9
same,% inhibn of tumor,colon 38 adenocarcinoma; [9],97%
same,% T/C (median survival time),colon 38 adenocarcinoma; [10],211%
same,over 100 day survivors/number of mice,colon 38 adenocarcinoma; [10],2/9
same,% inhibn of tumor,colon 38 adenocarcinoma; [10],99%
same,activity relative to AMD at equivalent doses,colon 38 adenocarcinoma,about 150%
same,cell growth inhibitory potency relative to AMD,mouse melanoma (B16),two to fourfold
same,"% T/C, optimal","[4]; dose 40 μg/kg iv once a week for three weeks, TST 15, observed day 22",18%
same,"% T/C, optimal","[4]; dose 55 μg/kg iv once a week for three weeks, TST 15, observed day 22",19%
same,"% T/C, optimal","[4]; dose 70 μg/kg iv once a week for three weeks, TST 15, observed day 32",5%
same,percent isolated: tissue bound,[2],7.5 ± 1.0%
same,percent isolated: unidentified metabolite,[2],10.0 ± 1.0%
same,percent metabolite isolated: SAD-glucuronide and/or sulfate,[2],47.0 ± 6.5%
same,percent metabolite isolated: protein conjugates,[2],5.5 ± 1.5%
same,percent unconverted drug,[2],30-50%
same,percent unconverted drug,[2]; listed as SAD(2),30.0 ± 3.0%
